Experimental data taken from patent US10934298B2, “Substituted pyrazolo[1,5-a]pyrimidines for the treatment of medical disorders” (BIAL—BioTech Investments, Inc., priority 2016, dated 2021).

Molecular target: T1, glucocerebrosidase (Gcase) (Homo sapiens, UniProt P04062)
T1 construct: micellar solution containing 10 nM GCase and 100 nM saposin C
T1 sequence (P04062 40-536): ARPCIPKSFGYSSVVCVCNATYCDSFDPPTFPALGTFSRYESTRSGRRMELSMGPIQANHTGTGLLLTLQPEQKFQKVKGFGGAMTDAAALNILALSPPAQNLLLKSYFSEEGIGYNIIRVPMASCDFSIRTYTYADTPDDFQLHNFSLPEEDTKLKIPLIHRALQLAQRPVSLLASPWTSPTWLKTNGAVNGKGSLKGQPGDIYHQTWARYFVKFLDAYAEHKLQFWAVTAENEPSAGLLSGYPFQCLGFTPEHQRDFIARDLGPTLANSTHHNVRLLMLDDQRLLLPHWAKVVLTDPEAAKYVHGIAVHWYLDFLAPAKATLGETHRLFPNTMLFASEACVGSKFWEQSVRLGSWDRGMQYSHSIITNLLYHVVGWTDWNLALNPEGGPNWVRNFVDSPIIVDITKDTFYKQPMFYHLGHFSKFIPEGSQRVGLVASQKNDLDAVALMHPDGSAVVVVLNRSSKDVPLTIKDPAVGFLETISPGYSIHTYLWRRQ
Test: Glucocerebrosidase (Gcase) activation assay with 4-methylumbelliferyl-beta-D-glucopyranoside substrate, saposin C and phosphatidylserine/triton micelles, fluorescence readout
Type: biochemical
Outline: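 10 nM GCase with 100 nM saposin C pre-incubated 30 min with compound in pH 4.7 phosphate/citrate PS/triton micelles, then mixed 1:1 with 2 mM 4-methylumbelliferyl-β-glucoside micellar substrate (stock level). Run 15 min at room temperature, stopped at pH 12.5; fluorescence 365/440 nm. Screened at 1.0 and 0.1 μM; 8-point curves from 5 μM.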

SMILES	Percent Gcase Activation, 0.1 μM Test Compound	Percent Gcase Activation, 1 μM Test Compound
Cc1cc(-c2ccc3ncn(C)c3c2)nc2c(C(=O)NC(C3CC3)C(F)(F)F)cnn12 (stereo not drawn) [III-304]	** (Gcase activation in the range of 10% up to 20%)	+++ (Gcase activation greater than 60%)
Cc1cc(-c2ccc3ncn(C)c3c2)nc2c(C(=O)N[C@H](C3CC3)C(F)(F)F)cnn12 [III-305]	*** (greater than 20% Gcase activation)	+++ (Gcase activation greater than 60%)
Cc1cc(-c2ccc3ncn(C)c3c2)nc2c(C(=O)N[C@@H](C3CC3)C(F)(F)F)cnn12 [III-306]	*** (greater than 20% Gcase activation)	+++ (Gcase activation greater than 60%)
Cc1cc(-c2ccc3nc[nH]c3c2)nc2c(C(=O)NC(C3CC3)C(F)(F)F)cnn12 (stereo not drawn) [III-307]	*** (greater than 20% Gcase activation)	++ (Gcase activation in the range of 30% up to 60%)
Cc1cc(-c2cccc3nc[nH]c23)nc2c(C(=O)NC(C3CC3)C(F)(F)F)cnn12 (stereo not drawn) [III-308]	* (less than 10% Gcase activation)	+++ (Gcase activation greater than 60%)
Cc1cc(-c2cccc3ncn(C)c23)nc2c(C(=O)NC(C3CC3)C(F)(F)F)cnn12 (stereo not drawn) [III-309]	* (less than 10% Gcase activation)	+ (less than 30% Gcase activation)
Cc1cc(-c2cccc3c2ncn3C)nc2c(C(=O)NC(C3CC3)C(F)(F)F)cnn12 (stereo not drawn) [III-310]	** (Gcase activation in the range of 10% up to 20%)	+++ (Gcase activation greater than 60%)
Cc1cc(-c2nc3ccccc3[nH]2)nc2c(C(=O)NC(C3CC3)C(F)(F)F)cnn12 (stereo not drawn) [III-311]	* (less than 10% Gcase activation)	++ (Gcase activation in the range of 30% up to 60%)
Cc1cc(-c2nc3ccccc3n2C)nc2c(C(=O)NC(C3CC3)C(F)(F)F)cnn12 (stereo not drawn) [III-312]	** (Gcase activation in the range of 10% up to 20%)	++ (Gcase activation in the range of 30% up to 60%)
Cc1cc(N2CC(C(C)C)OC2=O)nc2c(C(=O)NC(c3ccccc3)C(F)(F)F)cnn12 (stereo not drawn) [III-313]	*** (greater than 20% Gcase activation)	+++ (Gcase activation greater than 60%)
Cc1cc(N2C[C@H](c3ccccc3)OC2=O)nc2c(C(=O)NC(C3CC3)C(F)(F)F)cnn12 (stereo partly drawn) [III-314]	*** (greater than 20% Gcase activation)	+++ (Gcase activation greater than 60%)
Cc1cc(N2C[C@@H](c3ccccc3)OC2=O)nc2c(C(=O)NC(C3CC3)C(F)(F)F)cnn12 (stereo partly drawn) [III-315]	*** (greater than 20% Gcase activation)	+++ (Gcase activation greater than 60%)
Cc1cc(N2CC(C(C)C)OC2=O)nc2c(C(=O)NC(C3CC3)C(F)(F)F)cnn12 (stereo not drawn) [III-316]	** (Gcase activation in the range of 10% up to 20%)	+++ (Gcase activation greater than 60%)
Cc1cc(N2CC(C(C)C)OC2=O)nc2c(C(=O)N[C@H](C3CC3)C(F)(F)F)cnn12 (stereo partly drawn) [III-317]	** (Gcase activation in the range of 10% up to 20%)	+++ (Gcase activation greater than 60%)
Cc1cc(N2CC(C(C)C)OC2=O)nc2c(C(=O)N[C@@H](C3CC3)C(F)(F)F)cnn12 (stereo partly drawn) [III-318]	** (Gcase activation in the range of 10% up to 20%)	+++ (Gcase activation greater than 60%)
Cc1cc(N2CC(C)(C)NC2=O)nc2c(C(=O)NC(C3CC3)C(F)(F)F)cnn12 (stereo not drawn) [III-319]	** (Gcase activation in the range of 10% up to 20%)	+++ (Gcase activation greater than 60%)
Cc1cc(N2CC(C(C)C)NC2=O)nc2c(C(=O)NC(C3CC3)C(F)(F)F)cnn12 (stereo not drawn) [III-320]	*** (greater than 20% Gcase activation)	+++ (Gcase activation greater than 60%)

SMILES	Percent Gcase Activation, 0.1 μM Test Compound	Percent Gcase Activation, 1 μM Test Compound
Cc1nc2cc(-c3cc(C)n4ncc(C(=O)N[C@@H](C)C5CC5)c4n3)ccc2o1 [III-321]	*** (greater than 20% Gcase activation)	+++ (Gcase activation greater than 60%)
Cc1cc(C2=CC(C)(C)CCO2)nc2c(C(=O)NC(C3CC3)C(F)(F)F)cnn12 (stereo not drawn) [III-322]	*** (greater than 20% Gcase activation)	+++ (Gcase activation greater than 60%)
Cc1cc(C2CC(C)(C)CCO2)nc2c(C(=O)NC(C3CC3)C(F)(F)F)cnn12 (stereo not drawn) [III-323]	** (Gcase activation in the range of 10% up to 20%)	+++ (Gcase activation greater than 60%)
Cc1cc(-c2cccnn2)nc2c(C(=O)NC(C3CC3)C(F)(F)F)cnn12 (stereo not drawn) [III-324]	* (less than 10% Gcase activation)	+ (less than 30% Gcase activation)
Cc1cc(-c2ccnnc2)nc2c(C(=O)NC(C3CC3)C(F)(F)F)cnn12 (stereo not drawn) [III-325]	* (less than 10% Gcase activation)	+ (less than 30% Gcase activation)
Cc1cc(N2CCN(C(C)C)C2=O)nc2c(C(=O)N[C@@H](C3CC3)C(F)(F)F)cnn12 [III-326]	* (less than 10% Gcase activation)	+++ (Gcase activation greater than 60%)
Cc1cc(N2CCN(C(C)C)C2=O)nc2c(C(=O)N[C@H](C3CC3)C(F)(F)F)cnn12 [III-327]	** (Gcase activation in the range of 10% up to 20%)	+++ (Gcase activation greater than 60%)
Cc1cc(N2CCC(C)(C)C2=O)nc2c(C(=O)NC(C3CC3)C(F)(F)F)cnn12 (stereo not drawn) [III-328]	** (Gcase activation in the range of 10% up to 20%)	+++ (Gcase activation greater than 60%)
Cc1cc(N2CCN(c3ccccc3)C2=O)nc2c(C(=O)N[C@H](C)C(F)(F)F)cnn12 [III-329]	* (less than 10% Gcase activation)	+ (less than 30% Gcase activation)
Cc1cc(N2CCN(c3ccccc3)C2=O)nc2c(C(=O)N[C@H](C3CC3)C(F)(F)F)cnn12 [III-330]	** (Gcase activation in the range of 10% up to 20%)	++ (Gcase activation in the range of 30% up to 60%)
Cc1nc(-c2cc(C)n3ncc(C(=O)N[C@H](C4CC4)C(F)(F)F)c3n2)oc1C [III-331]	*** (greater than 20% Gcase activation)	+++ (Gcase activation greater than 60%)
Cc1oc(C(C)C)nc1-c1cc(C)n2ncc(C(=O)N[C@H](C3CC3)C(F)(F)F)c2n1 [III-332]	*** (greater than 20% Gcase activation)	+++ (Gcase activation greater than 60%)
Cc1nc(-c2cc(C)n3ncc(C(=O)N[C@H](C4CC4)C(F)(F)F)c3n2)c(C)o1 [III-333]	*** (greater than 20% Gcase activation)	+++ (Gcase activation greater than 60%)
Cc1cc(-c2ccc(F)o2)nc2c(C(=O)N[C@H](C)C(F)(F)F)cnn12 [III-334]	*** (greater than 20% Gcase activation)	+++ (Gcase activation greater than 60%)
Cc1cc(-c2ccoc2F)nc2c(C(=O)N[C@H](C)C(F)(F)F)cnn12 [III-335]	*** (greater than 20% Gcase activation)	+++ (Gcase activation greater than 60%)
Cc1cocc1-c1cc(C)n2ncc(C(=O)N[C@H](C)C(F)(F)F)c2n1 [III-336]	*** (greater than 20% Gcase activation)	+++ (Gcase activation greater than 60%)
